Series [1] relates to H. pylori. To be noted: cited from earlier work.
For series [2], the system named is H. pylori strains 26695 (ATCC 700392), SS1 and B128. Kind of series: In vitro incubation of H. pylori broth cultures with DHA added at time 0 (growth, viable CFU). To be noted: DHA 250 μM. The class given is cell-based, Helicobacter pylori.
A further series concerns H. pylori SS1 strain. In words: Efficiency of DHA versus standard therapy in H. pylori eradication in mice. Format: in vivo, C57BL/6 mice. To be noted: mice infected one month; DHA 15 days, standard therapy 7 days. From the text: C57BU6 mice have been infected with H. pylori SS1 strain for one month and proceed to treatment with DHA for 15 days or/and standard therapy for 7 days, as described elsewhere by Lee et al.^52 and van Zanten et al.^53. According to the standard therapy, mice received omeprazole (400 μmol/kg/day), metronidazole (14.2 μmol/kg/day) and clarithromycin (7.15 μmol/kg/day)^53.

For series [3], the system named is H. pylori strains 26695, SS1 and B128. Kind of series: In vitro addition of DHA to a 12 hours H. pylori culture (bactericidal/bacteriostatic effect, CFU). Format: cell-based, Helicobacter pylori. The note with it: versus prior art doses. The method, then: Stock solutions of DHA were diluted at desired concentrations (from 10 μM to 1000 μM) in Brucella broth (BB) enriched with 10% FBS. […] Each experiment consisting of a control (bacterial medium) and bacteria incubated with DHA at 10 μ[…] and 1000 μM was performed in triplicate. DHA was added at the time 0 of the experiments or after 12 hours. H. pylori broth cultures were incubated microaerophilically, at 37° C. for 48 hours. Every 6 hours, the OD 600 nm of the cultures was measured and 200 μL samples were diluted and plated on blood agar plates for the numeration of viable bacteria (colony-forming-units (CFU)) after 48 hours of incubation at 37° C. The question as to whether DHA has a bactericidal effect was answered by conducting an experiment where DHA was added to a 12 hours H. pylori culture. FIG. 2 represents the viability of the three strains of H. pylori used. Addition of DHA after 12 hours of H. pylori growth led to a decrease of the ability to form CFU in a dose dependent manner.

The subject of the next series is H. pylori strain SS1. In words: Mouse model for H. pylori gastric colonization, DHA in drinking water. Format: in vivo. The note with it: for stomach colonization / mice in which colonization by H. pylori occurred / inhibition of H. pylori growth (gastric colonization): DHA 50 μM in drinking water. From the text: Five-weeks-old specific pathogen-free C57BU6 male mice have been purchased from Charles River Laboratories (France). Animals were housed in microisolators in polycarbonate cages. Food has been supplied ad libitum. Standard diet was purchased from SAFE (Epinay/Orge, France). Animals were acclimatized for one week before inoculation. The experiments reported in the study were approved in advanced by the Central Animal Facility Committee of Institut Pasteur, in conformity with the French Ministry of Agriculture Guidelines for Animal Care.
H. pylori strain SS1 was grown on blood agar plates, harvested after 24 h and suspended in peptone broth. Twenty four mice (n=24) were orogastrically inoculated 100 μL of a suspension of 10^8 CFU/mL of H. pylori strain SS1, whereas non-infected groups of mice (n=24) were given 100 μL of peptone broth. Mice were sacrificed 1 or 3 months after infection. For each time point, the experiments consisted in 4 groups of mice, 2 groups received drinking water and for the two other groups, drinking water was supplemented with DHA at a final concentration of 50 μM. Dose of 50 μM corresponds more precisely to a quantity of 0.068 mg of DHA received by each mouse each day. Each two groups consisted of one uninfected-group (n=6) and one H. pylori strain SS1 infected-group (n=6). Stomachs were isolated from each mouse and used to measure H. pylori colonization as previously described by Ferrero et al.^51
C57BL/6 mice were therefore infected with SS1 strain and start on DHA treatment for the whole period of the experiment, which was given in their drinking water in a concentration of 50 μM. Mice were sacrificed at one, three, six or nine months of infection.

The test system of series [4] is H. pylori. To be noted: in vitro assay of Thompson et al.; cited from earlier work.

The structures appear in SMILES notation.

`CCC(C(=O)O)c1ccccc1` (stereo not shown) [2-phenylbutyrate]: the “effect on growth of H. pylori” value with H. pylori [1] is “ability to inhibit the growth of H. pylori”.
Turning to `O=C(O)CCCc1ccccc1` [4-phenylbutyrate], the “effect on growth of H. pylori” value in the series on H. pylori [1] was “ability to inhibit the growth of H. pylori”.
Take `CC/C=C\C/C=C\C/C=C\C/C=C\C/C=C\C/C=C\CCC(=O)O` [DHA, docosahexaenoic acid]: the “bacterial viability of strain 26695 as compared to SS1” value in series [2] is given as 100 times. Besides, in the series with H. pylori SS1 strain, the lower gastric colonization is listed as 10 times. For the same molecule, the “doses giving bactericidal and bacteriostatic effects, lower than the prior art doses” value in series [3] fell in the range of 5 to 10 times. Further, the “dose that showed a higher inhibitory role in gastric colonization” value with H. pylori strain SS1 (25, 50 and 100 μM tested in drinking water) amounted to 50 µM. Also, the stomach colonization with H. pylori strain SS1 (after 1 month of infection) was 0.47×10^5 CFU/g gastric tissue; in the series with H. pylori strain SS1 (after the third month), 0.62×10^5 CFU/g gastric tissue. Also, the “mice in which colonization by H. pylori occurred” value in the series on H. pylori strain SS1 (first month of infection) came to 20%; in the series on H. pylori strain SS1 (third month) it was 50%. Moreover, the “inhibition of H. pylori growth (gastric colonization)” value is on record as “about 100 fold” in the series with H. pylori strain SS1 (nine months of infection); “approximately 10 fold” in the series on H. pylori strain SS1 (one, three and six months of infection). In the series with H. pylori strain SS1 (DHA 50 μM in mice drinking water, 0.068 mg per mouse per day), the toxicity entry is reported as “no toxicity concerns”.
For `CC/C=C\C/C=C\C/C=C\C/C=C\C/C=C\CCCC(=O)O` [EPA], in the series with H. pylori [4], the “concentration that could inhibit the growth of H. Pylori” value is given as 0.2 mM.
On to `CC/C=C\C/C=C\C/C=C\CCCCCCCC(=O)O` [linolenic acid ω-3C18:3], for which, in the series on H. pylori [4], the “concentration that could inhibit the growth of H. Pylori” value was 0.2 mM.
Take `CCCCC/C=C\C/C=C\C/C=C\CCCCC(=O)O` [ω-6C18:3, linolenic acid ω-6C18:3]: in the series on H. pylori [4], the “concentration that could inhibit the growth of H. Pylori” value was 0.2 mM.
